Source: patent publication US20230210984A1, “ADOPTIVE IMMUNOTHERAPY” (The Council of the Queensland Institute of Medical Research, priority 2019, published 2023)

What was measured:
Type in all cases: cell-based
[1] = test system: C17, C666.1, SNU719 and YCCLE1 cells; experiment: MTS cell viability, inhibitor combined with HLA matched allogeneic EBV-specific T cells (Example 3); details: combination with HLA matched EBV-specific T cells 25:1 vs individual treatment, 48 hrs; MEK1/2 inhibitors 1 μM, JQ1 2.5 μM
Experimental: The data are represented as the mean±SD from three independent experiments. P-values were calculated using one-way ANOVA: ns=not significant, *=p<0.05, **=p<0.01, ***=p<0.001 and ****=p<0.0001.
The data are represented as the mean±SD from three independent experiments.

[2] = test system: SNU719 and C666.1 cells; experiment: Xcellegence cell growth curve (Example 3); details: dual combination with HLA matched T cells 25:1 vs individual treatment, selumatinib 1 μM, JQ1 2.5 μM
Experimental: FIG. 11: Impact of dual combination of MEK1/2 inhibitor and HLA matched allogeneic EBV specific T cells. (A) Cell growth curve highlight the rate of cellular proliferation of SNU719 (upper panel) and C666.1 (lower panel) observed in the presence of HLA-matched EBV specific T cells (effector-to-target ratio of 25:1) and selumatinib (1 μM) individually and in combination, measured using Xcellegence. The effect of individual and dual combination on (B) cell proliferation based on Ki67 and (C) cell death based on active Caspase-3 of SNU719 expression (upper panel) and C666.1 (lower panel), performed using flow cytometry. The data are represented as the mean±SD from three independent experiments. P-values were calculated using one-way ANOVA: ns=not significant, *p<0.05, **p<0.01, ***p<0.001 and ****p<0.0001.
FIG. 15: Impact of dual combination of JQ1 inhibitor and HLA matched allogeneic EBV-specific T cells. The cell viability measured by MTS assay highlighting the impact of a HLA-matched EBV specific T cells at the effector-to-target ratio of 25:1 and JQ1 (2.5 μM) in suppressing cellular growth individually and in combination after 48 hrs of incubation with indicated (A) gastric (SNU719, YCCLE1 (upper panel)) and nasopharyngeal cancer cells (C17, C666.1 (lower panel)). […] P-values were calculated using one-way ANOVA: ns=not significant, *p<0.05, **p<0.01, ***p<0.001 and ****p<0.0001. […]

[3] = test system: SNU719 and C666.1 cells; experiment: MTS cell viability with HLA-mismatched versus HLA-matched T cells and inhibitors; details: for effect of HLA-matched vs HLA-mismatched T cells in presence of inhibitor: MEK1/2 inhibitors 1 μM, JQ1 2.5 μM, T cells 25:1; for cell viability: 48 hrs
Experimental: FIG. 12: Combination of MEK1/2 inhibitors with HLA mismatched allogeneic-specific T cells. […] The data are represented as the mean±SD from three independent experiments. P-values were calculated using one-way ANOVA: ns=not significant, *=p<0.05, **=p<0.01, ***=p<0.001 and ****=p<0.0001.
FIG. 16: Combination of JQ1 inhibitors with HLA mismatched all T cells. […] The data are represented as the mean±SD from three independent experiments. P-values were calculated using one-way ANOVA: ns=not significant, *=p<0.05, **=p<0.01, ***=p<0.001 and ****=p<0.0001.
Next, we wanted to determine the specificity of the combination and as such we challenged SNU719 and C666.1 cells with HLA-mismatched allogeneic T cells alongside MEK1/2 inhibitors (both selumetanib and trematinib), individually and in combination.
Next, we wanted to determine the specificity of the combination and as such we challenged SNU719 and C666.1 cells with HLA-mismatch allogeneic T cells alongside JQ1 inhibitor individually and in combination.

[4] = test system: SNU719 cells; experiment: MTS cell viability, inhibitor combined with EBV-specific T cells (Example 2); details: combination with EBV-specific T cells (25:1) vs individual treatment, 48 hrs; AZD6244 0.5 μM, trematinib 1.0 μM, JQ1 5.0 μM
Experimental: Cell viability assay was performed using the CellTiter 96® AQueous one cell viability assay reagent (Promega, WI, USA) for three biological replicates per EBV-associated cancer cell lines in triplicate. Briefly, the cancer cells (target cells) were plated at a density of 5000 cells per well in an overall media volume of 200 μL on a 96-well tissue-culture plate (BD Falcon™). The effector AdE1-LMPpoly transfected T cells were freshly thawed in RPMI-1640 with 10% FCS and 120 IU/mL of recombinant IL-2 at 37° C. and 50% CO2. Post 24 hrs of plating and incubation at 37° C. and 50% CO2, the effector T cells were mixed to the target cells at a gradient ratio of effector to target (E:T) of 5:1-100:1. The exact number of T cells (To) used per E:T ratio (ET) was independently used as control alongside PBS treated target cells (Es) and sole media (M0). After 24 hrs of incubation at 37° C. and 50% CO2, MTS was added to each well (1:100 dilution in media) and was incubated for 1 hour following which the plate was centrifuged at 1,200×g at room temperature for 5 min and absorbance of the mixture at an optical density of 490 nm was measured via a microplate reader. The relative cell viability was calculated using the following formula: […]

[5] = combination with HLA-mismatch allogeneic T cells 25:1 vs DMSO treated control
[6] = combination with HLA-mismatch allogeneic T cells 25:1 vs inhibitor alone

`Cc1sc2c(c1C)C(c1ccc(Cl)cc1)=N[C@@H](CC(=O)OC(C)(C)C)c1nnc(C)n1-2` [JQ1] was tested, and the cell viability [1] was “significantly reduced”, the “rate of cell death (Xcellegence)” value [2] was “faster cell death” and the “effect of HLA-matched vs HLA-mismatched T cells in presence of inhibitor” value [3] was “significantly amplified”. For the same compound, the cell viability [3, 5] was “significant reduction in cell viability”, the cell viability [3, 6] was “no significant reduction in cell viability” and the “cell viability of SNU719” value [4] was “significantly reduced”.

In the case of `Cn1cnc2c(F)c(Nc3ccc(Br)cc3Cl)c(C(=O)NOCCO)cc21` [selumetanib], the cell viability [1] is reported as “significantly reduced”, the “rate of cell death (Xcellegence)” value [2] is reported as “faster cell death” and the “effect of HLA-matched vs HLA-mismatched T cells in presence of inhibitor” value [3] is reported as “significantly amplified”. The cell viability [3, 5] was “significant reduction in cell viability”, the cell viability [3, 6] was “no significant reduction in cell viability” and the “cell viability of SNU719” value [4] was “significantly reduced”.
